The values that follow come from patent US9815835B2, “Substituted polycyclic carbamolypyridone derivative” (priority 2009, dated 2017).

The target of assay [1] is cap-dependent endonuclease (RNP fraction containing PB1•PB2•PA complex) (Influenza A virus, UniProt P15659). Put plainly: biochemical. Conditions: RNP from A/WSN/33 virus, capped Cy3/BHQ2 30mer RNA substrate, 60 minutes at room temperature; read-out: CEN IC50.
The test system of a further assay is influenza virus. Put plainly: microbe, parasite or virus in culture. It counts as cell-based, influenza virus (MDBK or MDCK cells). The note with it: unidentified influenza virus, 72 h, read-out: CPE EC50, effective concentration to achieve 50% CPE inhibition, 3 days incubation, WST-8.

What is called IC50 is the concentration that gives 50% inhibition.

In the case of `C[C@H](N1CN([C@H]2c3ccc(Cl)cc3CSc3ccccc32)n2ccc(=O)c(O)c2C1=O)C(F)(F)F` [Example 420], the IC50 in assay [1] is 58 nM. For the same compound, the EC50 in the assay with influenza virus was 21 nM.
As for `C[C@H](N1CN([C@H]2c3ccccc3CSc3c(Cl)cccc32)n2ccc(=O)c(O)c2C1=O)C(F)(F)F` [Example 423], the IC50 in assay [1] is 280 nM. For the same compound, in the assay with influenza virus, the EC50 is 19 nM.
The like results for `C[C@@H](N1CN([C@H]2c3ccc(Br)cc3CSc3ccccc32)n2ccc(=O)c(O)c2C1=O)C(F)(F)F` [Example 433] were, in that order, 14 nM and 17 nM.
In the case of `C[C@@H](N1CN([C@H]2c3ccccc3SCc3c(F)cccc32)n2ccc(=O)c(O)c2C1=O)C(F)(F)F` [Example 445], the IC50 in assay [1] was determined as 13 nM. In addition, the EC50 with influenza virus stood at 4 nM.
Turning to `C[C@@H](N1CN([C@H]2c3ccc(Cl)cc3CSc3ccccc32)n2ccc(=O)c(O)c2C1=O)C(F)(F)F` [Example 446], the concentration for half-maximal inhibition (IC50) in assay [1] came out at 7 nM. In addition, in the assay with influenza virus, the EC50 is 11 nM.
For `C[C@H](N1CN([C@H]2c3cc(F)ccc3CSc3ccccc32)n2ccc(=O)c(O)c2C1=O)C(F)(F)F` [Example 447], in assay [1], the IC50 amounted to 96 nM. In the assay on influenza virus, the EC50 came out at 18 nM.
Regarding `C[C@@H](N1CN([C@H]2c3ccccc3CSc3cc(Cl)ccc32)n2ccc(=O)c(O)c2C1=O)C(F)(F)F` [Example 449], the IC50 in assay [1] was 62 nM. Moreover, the EC50 in the assay on influenza virus is 21 nM.
The like results for `C[C@H](N1CN([C@@H]2c3ccccc3SCc3c(F)cccc32)n2ccc(=O)c(O)c2C1=O)C(F)(F)F` [Example 452] were, in that order, 177 nM and 16 nM.
On to `C[C@H](N1CN([C@@H]2c3ccccc3SCc3cccc(F)c32)n2ccc(=O)c(O)c2C1=O)C(F)(F)F` [Example 457], for which the IC50 in assay [1] was 242 nM. Also, the EC50 in the assay with influenza virus is 14 nM.
`Cc1cccc2c1CSc1ccccc1[C@H]2N1CN([C@H](C)C(F)(F)F)C(=O)c2c(O)c(=O)ccn21` [Example 464]: the 50% inhibitory concentration (IC50) in assay [1] amounted to 24 nM. Further, in the assay with influenza virus, the EC50 amounted to 14 nM.
As to `C[C@@H](N1CN([C@@H]2c3ccccc3SCc3c(C#N)cccc32)n2ccc(=O)c(O)c2C1=O)C(F)(F)F` [Example 476], the half-maximal inhibitory concentration (IC50) in assay [1] is 31 nM. For the same compound, the EC50 with influenza virus stood at 14 nM.
For `CN(C)CCN1CN(C2c3ccccc3CCc3ccccc32)n2ccc(=O)c(O)c2C1=O` [Example 478], in that order: 88 nM and 129 nM.
As to `CC(CN1CCOCC1)N1CN(C2c3ccccc3CCc3ccccc32)n2ccc(=O)c(O)c2C1=O` (stereo not shown) [Example 482], the IC50 in assay [1] amounted to 103 nM. Moreover, the EC50 in the assay with influenza virus turned out to be 31 nM.
For `CC(CN1CCN(C)CC1)N1CN(C2c3ccccc3CSc3ccccc32)n2ccc(=O)c(O)c2C1=O` (stereo not shown) [Example 485], in that order: 221 nM and 424 nM.
For `CC(CN1CCCCC1)N1CN(C2c3ccccc3CCc3ccccc32)n2ccc(=O)c(O)c2C1=O` (stereo not shown) [Example 486], in that order: 140 nM and 72 nM.
`CC(CN1CCCCC1)N1CN(C2c3ccccc3CSc3ccccc32)n2ccc(=O)c(O)c2C1=O` (stereo not shown) [Example 487]: the IC50 in assay [1] was 91 nM. Besides, in the assay with influenza virus, the EC50 is 26 nM.
For `CC(CN1CCSCC1)N1CN(C2c3ccccc3CCc3ccccc32)n2ccc(=O)c(O)c2C1=O` (stereo not shown) [Example 488], in that order: 151 nM and 27 nM.
On to `CC(CN1CCSCC1)N1CN(C2c3ccccc3CSc3ccccc32)n2ccc(=O)c(O)c2C1=O` (stereo not shown) [Example 489], for which the half-maximal inhibitory concentration (IC50) in assay [1] stood at 133 nM. In addition, the EC50 in the assay on influenza virus came to 14 nM.
The like results for `CCN1C(=O)c2c(O)c(=O)ccn2C(C(c2ccccc2)C2CCCCC2)N1CC` (stereo not shown) [Example 493] were, in that order, 112 nM and 101 nM.
Turning to `COCCN1C(=O)c2c(O)c(=O)ccn2C(C(c2ccccc2)c2ccccc2)N1C` (stereo not shown) [Example 495], the IC50 in assay [1] was found to be 277 nM. For the same compound, in the assay with influenza virus, the EC50 turned out to be 310 nM.
Turning to `CN1C(=O)c2c(O)c(=O)ccn2C(C(c2ccccc2)c2ccccc2)N1C` (stereo not shown) [Example 496], in assay [1], the 50% inhibitory concentration (IC50) turned out to be 170 nM. Further, in the assay with influenza virus, the EC50 amounted to 177 nM.
For `CN1C(C(c2ccccc2)c2ccccc2)n2ccc(=O)c(O)c2C(=O)N1CCOc1ccc(F)cc1` (stereo not shown) [Example 497], in that order: 215 nM and 511 nM.
`CCN1C(=O)c2c(O)c(=O)ccn2C(C(c2ccccc2)c2ccccc2)N1CC` (stereo not shown) [Example 498]: the IC50 in assay [1] came out at 161 nM. Also, the EC50 in the assay on influenza virus was 351 nM.
The like results for `CC(C)N1CN(C2c3ccccc3CCc3ccccc32)n2cc(CF)c(=O)c(O)c2C1=O` [Example 508] were, in that order, 36 nM and 56 nM.
With `CC(C)N1CN(C2c3ccccc3CSc3ccccc32)n2cc(CF)c(=O)c(O)c2C1=O` (stereo not shown) [Example 509], the half-maximal inhibitory concentration (IC50) in assay [1] was determined as 15 nM. In addition, the EC50 in the assay on influenza virus was 14 nM.
On to `COCCC1N(C(C)C)C(=O)c2c(O)c(=O)ccn2N1C1c2ccccc2CCc2ccccc21` (stereo not shown) [Example 511], for which the IC50 in assay [1] amounted to 175 nM. Further, the EC50 in the assay with influenza virus worked out at 15 nM.
The like results for `COCC1N(C(C)C)C(=O)c2c(O)c(=O)ccn2N1C1c2ccccc2CCc2ccccc21` (stereo not shown) [Example 515] were, in that order, 197 nM and 19 nM.
The like results for `CSCCC1N(C(C)C)C(=O)c2c(O)c(=O)ccn2N1C1c2ccccc2CCc2ccccc21` (stereo not shown) [Example 516] were, in that order, 39 nM and 17 nM.
For `COC(OC)C1N(C(C)C)C(=O)c2c(O)c(=O)ccn2N1C1c2ccccc2CCc2ccccc21` (stereo not shown) [Example 520], in that order: 212 nM and 17 nM.
For the compound `CC(C)N1C(=O)c2c(O)c(=O)ccn2N(C2c3ccccc3CCc3ccccc32)C1CCC(F)(F)F` (stereo not shown) [Example 521], in assay [1], the concentration for half-maximal inhibition (IC50) amounted to 191 nM. Besides, the EC50 in the assay with influenza virus was 15 nM.
Consider `COCCCC1N(C(C)C)C(=O)c2c(O)c(=O)ccn2N1C1c2ccc(Cl)cc2CCc2cc(Cl)ccc21` (stereo not shown) [Example 524], for which, in assay [1], the half-maximal inhibitory concentration (IC50) worked out at 57 nM. The EC50 in the assay with influenza virus came to 26 nM.
The like results for `CC(C)N1C(=O)c2c(O)c(=O)ccn2N(C2c3ccccc3CCc3ccccc32)C1c1ccc(Cl)cc1` (stereo not shown) [Example 527] were, in that order, 127 nM and 88 nM.
As to `CC(C)N1C(=O)c2c(O)c(=O)ccn2N(C2c3ccccc3CCc3ccccc32)C1CN` (stereo not shown) [Example 532], the half-inhibitory concentration (IC50) in assay [1] was determined as 98 nM. Also, the EC50 in the assay with influenza virus turned out to be 75 nM.
The like results for `CC(C)N1C(=O)c2c(O)c(=O)ccn2N(C2c3ccccc3CCc3ccccc32)C1CN(C)C` (stereo not shown) [Example 536] were, in that order, 71 nM and 27 nM.
For `COC(=O)NCC1N(C(C)C)C(=O)c2c(O)c(=O)ccn2N1C1c2ccccc2CCc2ccccc21` (stereo not shown) [Example 544], in that order: 168 nM and 51 nM.
Turning to `CSCC(=O)NCC1N(C(C)C)C(=O)c2c(O)c(=O)ccn2N1C1c2ccccc2CCc2ccccc21` (stereo not shown) [Example 546], the IC50 in assay [1] was 202 nM. Moreover, the EC50 in the assay on influenza virus stood at 124 nM.
For `CC(C)N1C(=O)c2c(O)c(=O)ccn2N(C2c3ccccc3CCc3ccccc32)C1CO` (stereo not shown) [Example 547], in that order: 32 nM and 27 nM.
The like results for `CC(C)N1C(=O)c2c(O)c(=O)ccn2N(C2c3ccccc3CCc3ccccc32)C1CCO` (stereo not shown) [Example 548] were, in that order, 86 nM and 38 nM.
Regarding `NCC1N(CCO)C(=O)c2c(O)c(=O)ccn2N1C1c2ccccc2CCc2ccccc21` (stereo not shown) [Example 549], in assay [1], the IC50 was 76 nM. In addition, the EC50 in the assay with influenza virus was determined as 2100 nM.
For the compound `COCCC1N(CCO)C(=O)c2c(O)c(=O)ccn2N1C1c2ccccc2CCc2ccccc21` (stereo not shown) [Example 552], the concentration for half-maximal inhibition (IC50) in assay [1] came to 230 nM. The EC50 with influenza virus was determined as 85 nM.
On to `O=C1c2c(O)c(=O)ccn2N(C2c3ccccc3CCc3ccccc32)C(CO)N1CCO` (stereo not shown) [Example 554], for which, in assay [1], the half-maximal inhibitory concentration (IC50) was 65 nM. The EC50 in the assay with influenza virus is 465 nM.
For `COC[C@H](C)N1C(=O)c2c(O)c(=O)ccn2N(C2c3ccccc3CCc3ccccc32)[C@@H]1CO` [Example 555], in that order: 23 nM and 12 nM.
For `COCCN1C[C@H](C(c2ccccc2)c2ccccc2)n2cc(C)c(=O)c(O)c2C1=O` [Example 557], in that order: 281 nM and 2470 nM.
For the compound `CN1C[C@H](C2c3ccccc3CSc3ccccc32)n2cc(C(=O)O)c(=O)c(O)c2C1=O` (stereo partly shown) [Example 560], the concentration for half-maximal inhibition (IC50) in assay [1] amounted to 27 nM. In the assay on influenza virus, the EC50 was 173 nM.
The like results for `CC(C)N1C[C@H](C2c3ccccc3CSc3ccccc32)n2ccc(=O)c(O)c2C1=O` (stereo partly shown) [Example 561] were, in that order, 73 nM and 8 nM.
For `CN1C[C@H](C2c3ccccc3CSc3ccccc32)n2ccc(=O)c(O)c2C1=O` (stereo partly shown) [Example 562], in that order: 22 nM and 62 nM.
The like results for `O=C1NCC(C2c3ccccc3CCc3ccccc32)n2ccc(=O)c(O)c21` (stereo not shown) [Example 563] were, in that order, 49 nM and 464 nM.
In the case of `CN1CC(C2c3ccccc3CCc3ccccc32)n2ccc(=O)c(O)c2C1=O` (stereo not shown) [Example 564], the IC50 in assay [1] amounted to 88 nM. Also, the EC50 with influenza virus worked out at 136 nM.
For `CN(C)CCN1CC(C2c3ccccc3CCc3ccccc32)n2ccc(=O)c(O)c2C1=O` (stereo not shown) [Example 565], in that order: 154 nM and 726 nM.
The like results for `O=C1c2c(O)c(=O)ccn2C(C2c3ccccc3CCc3ccccc32)CN1c1ccccn1` (stereo not shown) [Example 569] were, in that order, 138 nM and 1010 nM.
The like results for `O=C1c2c(O)c(=O)ccn2C(C2c3ccccc3CCc3ccccc32)CN1c1cccnc1` (stereo not shown) [Example 570] were, in that order, 81 nM and 2050 nM.
On to `NN1CC(C2c3ccccc3CCc3ccccc32)n2ccc(=O)c(O)c2C1=O` (stereo not shown) [Example 571], for which the IC50 in assay [1] was found to be 65 nM. The EC50 with influenza virus turned out to be 320 nM.
Take `N#CCN1CC(C2c3ccccc3CCc3ccccc32)n2ccc(=O)c(O)c2C1=O` (stereo not shown) [Example 573]: in assay [1], the concentration for half-maximal inhibition (IC50) turned out to be 55 nM. The EC50 in the assay with influenza virus stood at 158 nM.
